Drawing on US11795165B2, “Tetrahydro-benzoazepine glycosidase inhibitors” (Asceneuron SA, priority 2018, dated 2023), this text covers IC50 for 45 compounds.

Broadly, the IC50 is the concentration at which inhibition is half-maximal. A lower IC50 goes with higher potency.

The target of the experiment is His-Tagged hOGA (human O-GlcNAcase) (Homo sapiens (Human), UniProt O60502). Briefly: Human O-GlcNAcase enzyme inhibition assay (OGA enzyme inhibition assay). In kind it is biochemical. The note with it: His-Tagged hOGA 20 nM, FL-GlcNAc 10 μM, 60 min at room temperature, pH 6.5; activity classes. As to the method: Example B01: Human O-GlcNAcase Enzyme Inhibition Assay
His-Tagged hOGA (human O-GlcNAcase), sequence (O60502 whole entry): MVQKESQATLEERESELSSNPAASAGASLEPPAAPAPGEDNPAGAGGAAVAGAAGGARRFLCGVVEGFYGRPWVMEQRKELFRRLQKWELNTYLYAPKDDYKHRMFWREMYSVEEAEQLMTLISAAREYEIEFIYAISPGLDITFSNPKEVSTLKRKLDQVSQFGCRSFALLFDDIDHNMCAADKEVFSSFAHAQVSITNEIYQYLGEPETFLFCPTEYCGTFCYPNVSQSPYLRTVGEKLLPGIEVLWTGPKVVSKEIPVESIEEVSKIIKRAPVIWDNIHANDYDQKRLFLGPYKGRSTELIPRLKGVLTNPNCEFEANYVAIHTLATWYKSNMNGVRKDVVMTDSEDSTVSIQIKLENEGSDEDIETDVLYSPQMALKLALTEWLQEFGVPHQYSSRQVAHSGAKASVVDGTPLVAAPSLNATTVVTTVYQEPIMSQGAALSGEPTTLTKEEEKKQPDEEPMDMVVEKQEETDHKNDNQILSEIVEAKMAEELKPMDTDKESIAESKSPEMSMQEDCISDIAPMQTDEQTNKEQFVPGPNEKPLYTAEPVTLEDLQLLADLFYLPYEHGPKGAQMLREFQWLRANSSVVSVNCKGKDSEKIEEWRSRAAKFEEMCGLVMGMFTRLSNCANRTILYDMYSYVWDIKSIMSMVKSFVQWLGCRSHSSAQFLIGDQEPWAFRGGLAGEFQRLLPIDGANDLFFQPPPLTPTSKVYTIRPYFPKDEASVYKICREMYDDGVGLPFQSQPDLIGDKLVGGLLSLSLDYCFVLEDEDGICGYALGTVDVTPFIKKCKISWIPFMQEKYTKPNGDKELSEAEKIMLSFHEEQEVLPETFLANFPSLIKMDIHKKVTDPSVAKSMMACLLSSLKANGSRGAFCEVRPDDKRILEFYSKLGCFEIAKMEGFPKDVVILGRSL
5 μl of the appropriate concentration of a solution of inhibitor in McIlvaine's Buffer (pH 6.5) in 2% DMSO (for a dose response curve calculation) is added into each well of a 384-well plate (Greiner, 781900). Then, 20 nM of His-Tagged hOGA and 10 μM of FL-GlcNAc (Fluorescein mono-beta-D-(2-deoxy-2-N-acetyl) glucopyranoside; Marker Gene Technologies Inc, M1485) were added to the 384-well plate for a final volume of 20 μl. After incubation for 60 min at room temperature, the reaction was terminated by the addition of 10 μL of stop buffer (200 mM glycine, pH 10.75). The level of fluorescence (Δexc 485 nm; (Δemm 520 nm) was read on a PHERAstar machine. The amount of fluorescence measured was plotted against the concentration of inhibitor to produce a sigmoidal dose response curve to calculate an IC50. All individual data was corrected by subtraction of the background (Thiamet 3 uM=100% inhibition) whilst 0.5% DMSO was considered as the control value (no inhibition).
`CC(c1ccc2scnc2c1)N1CCc2cnc(N)nc2CC1` (racemic) [Example 108] had an IC50 of less than 50 nM.

In turn, `CC(c1ccc2scnc2c1)N1CCc2ccccc2CC1` (single isomer, unassigned) [Example 22] displayed an IC50 of 200 to 1000 nM.

Compound `CC(c1ccc2scnc2c1)N1CCc2ccc(S(C)(=O)=O)cc2CC1` (racemic) [Example 18, 5-(1-(7-(methylsulfonyl)-1,2,4,5-tetrahydro-3H-benzo[d]azepin-3-yl)ethyl)benzo[d]thiazole] registered an IC50 of less than 50 nM.

As for `CC(C)COc1ccc2c(c1)CCN(C(C)c1ccc3scnc3c1)CC2` (racemic) [Example 26, 5-(1-(7-isobutoxy-1,2,4,5-tetrahydro-3H-benzo[d]azepin-3-yl)ethyl)benzo[d]thiazole], the IC50 was 200 to 1000 nM.

`CC(c1ccc2scnc2c1)N1CCCc2cc(Br)ccc2C1` (racemic) [Example 13, 5-(1-(7-bromo-1,3,4,5-tetrahydro-2H-benzo[c]azepin-2-yl)ethyl)benzo[d]thiazole] registered an IC50 of 200 to 1000 nM.

Take `COc1ccc2c(c1)CCN(C(C)c1cnc3c(c1)OCC3)CC2` (racemic) [Example 34, 6-(1-(7-methoxy-1,2,4,5-tetrahydro-3H-benzo[d]azepin-3-yl)ethyl)-2,3-dihydrofuro[3,2-b]pyridine]: the IC50 is less than 50 nM.

The compound `CC(c1ccc2scnc2c1)N1CCCc2cc(C#N)ccc2C1` (racemic) [Example 15, 2-(1-(benzo[d]thiazol-5-yl)ethyl)-2,3,4,5-tetrahydro-1H-benzo[c]azepine-7-carbonitrile] yielded an IC50 of 200 to 1000 nM.

With `CC(c1ccc2scnc2c1)N1CCCc2cc(-c3cnn(C)c3)ccc2C1` (racemic) [Example 110], the IC50 is 200 to 1000 nM.

The compound `CC(c1ccc2scnc2c1)N1CCc2ccccc2CC1` (racemic) [Example 20, 5-(1-(1,2,4,5-tetrahydro-3H-benzo[d]azepin-3-yl)ethyl)benzo[d]thiazole] returned an IC50 of less than 50 nM.

`COc1ccc2c(c1)CCN(Cc1ccc3c(c1)OCCO3)C(C)C2` (racemic) [Example 30, 3-((2,3-dihydrobenzo[b][1,4]dioxin-6-yl)methyl)-7-methoxy-2-methyl-2,3,4,5-tetrahydro-1H-benzo[d]azepine] displayed an IC50 of 1000 to 10000 nM.

Take `CC(=O)Nc1ncc(CN2CCCc3ccccc3C2C)s1` (racemic) [Example 122]: the IC50 fell in the range of 1000 to 10000 nM.

Compound `CSc1ccc2c(c1)CCN(C(C)c1ccc3scnc3c1)CC2` (single isomer, unassigned) [Example 119] displayed a half-inhibitory concentration (IC50) of less than 50 nM.

In turn, `CC(c1ccc2scnc2c1)N1CCCc2ncc([N+](=O)[O-])cc2C1` (racemic) [Example 106] displayed an IC50 of 200 to 1000 nM.

In turn, `CC(c1ccc2scnc2c1)N1CCc2cc(N)cnc2CC1` (racemic) [Example 117] yielded an IC50 of less than 50 nM.

`CC(c1ccc2scnc2c1)N1CCc2ccc(-c3cnn(C)c3)cc2CC1` (racemic) [Example 109] gave a half-inhibitory concentration (IC50) of less than 50 nM.

`CC(c1ccc2scnc2c1)N1CCCc2cc(S(C)(=O)=O)ccc2C1` (racemic) [Example 17, 5-(1-(7-(methylsulfonyl)-1,3,4,5-tetrahydro-2H-benzo[c]azepin-2-yl)ethyl)benzo[d]thiazole] showed an IC50 of 200 to 1000 nM.

`COc1ccc2c(c1)CCN(C(C)c1ccc3c(c1)OCC3)CC2` (stereo not drawn) [Example 7, 3-(1-(2,3-dihydrobenzofuran-6-yl)ethyl)-7-methoxy-2,3,4,5-tetrahydro-1H-benzo[d]azepine]: the IC50 was less than 50 nM.

In turn, `Cc1cc(Oc2ccc3c(c2)CCN(C(C)c2ccc4scnc4c2)CC3)ccn1` (racemic) [Example 60] displayed an IC50 of less than 50 nM.

The compound `COc1ccc2c(n1)CCN(C(C)c1ccc3scnc3c1)CC2` (racemic) [Example 31, 5-(1-(2-methoxy-5,6,8,9-tetrahydro-7H-pyrido[2,3-d]azepin-7-yl)ethyl)benzo[d]thiazole] gave a concentration for half-maximal inhibition (IC50) of less than 50 nM.

Turning to `CC(c1ccc2scnc2c1)N1CCc2cc(NS(=O)(=O)C3CC3)cnc2CC1` (racemic) [Example 120], the IC50 was less than 50 nM.

`CC(C)Oc1ccc2c(c1)CCN(C(C)c1ccc3scnc3c1)CC2` (racemic) [Example 25, 5-(1-(7-isopropoxy-1,2,4,5-tetrahydro-3H-benzo[d]azepin-3-yl)ethyl)benzo[d]thiazole]: the IC50 lay in the range of 50 to 200 nM.

For `COc1ccc2c(c1)CCN(C(C)c1ccc3nccnc3c1)CC2` (racemic) [Example 12, 7-methoxy-3-(1-(quinoxalin-6-yl)ethyl)-2,3,4,5-tetrahydro-1H-benzo[d]azepine], the IC50 is less than 50 nM.

Compound `CC(=O)Nc1ccc2c(c1)CCN(C(C)c1ccc3scnc3c1)CC2` (racemic) [Example 43] displayed an IC50 of less than 50 nM.

For `CC(c1ccc2scnc2c1)N1CCc2ccc(S(C)(=N)=O)cc2CC1` (stereo not drawn) [Example 113], the IC50 was less than 50 nM.

Turning to `CC(=O)Nc1ccc2c(c1)CCCN(C(C)c1ccc3scnc3c1)C2` (racemic) [Example 107], the IC50 fell in the range of 200 to 1000 nM.

In turn, `COc1ccc2c(c1)CCN(C(C)c1ccc3scnc3c1)CC2` (single isomer, unassigned) [Example 6] had an IC50 of 200 to 1000 nM.

Compound `COc1cc2c(cc1Cl)CCN(C(C)c1ccc3scnc3c1)CC2` (racemic) [Example 11, 5-(1-(7-chloro-8-methoxy-1,2,4,5-tetrahydro-3H-benzo[d]azepin-3-yl)ethyl)benzo[d]thiazole] returned an IC50 of less than 50 nM.

Compound `COc1ccc2c(c1)CCN(C(C)c1ccc3scnc3c1)CC2O` (racemic) [Example 116] gave an IC50 of 50 to 200 nM.

Take `CC(c1ccc2scnc2c1)N1CCc2ccc(-c3ccccn3)cc2CC1` (racemic) [Example 32, 5-(1-(7-(pyridin-2-yl)-1,2,4,5-tetrahydro-3H-benzo[d]azepin-3-yl)ethyl)benzo[d]thiazole]: the IC50 was in the range of 1000 to 10000 nM.

“5-(1-(7-methoxy-2-methyl-1,2,4,5-tetrahydro-3H-benzo[d]azepin-3-yl)ethyl)benzo[d]thiazole [Example 19]” yielded an IC50 of 50 to 200 nM.

`CC(c1ccc2scnc2c1)N1CCc2ccc(S(C)(=N)=O)cc2CC1` (single isomer, unassigned) [Example 115] registered an IC50 of 1000 to 10000 nM.

In turn, `COc1ccc2c(c1Cl)CCN(C(C)c1ccc3scnc3c1)CC2` (racemic) [Example 10, 5-(1-(6-chloro-7-methoxy-1,2,4,5-tetrahydro-3H-benzo[d]azepin-3-yl)ethyl)benzo[d]thiazole] gave an IC50 of 50 to 200 nM.

Consider `CSc1ccc2c(c1)CCCN(C(C)c1ccc3scnc3c1)C2` (racemic) [Example 112], for which the 50% inhibitory concentration (IC50) was 200 to 1000 nM.

`CC(c1ccc2scnc2c1)N1CCc2ccc(OC(F)F)cc2CC1` (racemic) [Example 24, 5-(1-(7-(difluoromethoxy)-1,2,4,5-tetrahydro-3H-benzo[d]azepin-3-yl)ethyl)benzo[d]thiazole]: the IC50 is less than 50 nM.

Turning to `COc1ccc2c(c1)CCN(Cc1ccc3scnc3c1)C(C)C2` (racemic) [Example 29, 5-((7-methoxy-2-methyl-1,2,4,5-tetrahydro-3H-benzo[d]azepin-3-yl)methyl)benzo[d]thiazole], the half-inhibitory concentration (IC50) is 1000 to 10000 nM.

`CC(c1ccc2scnc2c1)N1CCc2ccc(Oc3cccc(F)n3)cc2CC1` (racemic) [Example 23, 5-(1-(7-((6-fluoropyridin-2-yl)oxy)-1,2,4,5-tetrahydro-3H-benzo[d]azepin-3-yl)ethyl)benzo[d]thiazole]: the IC50 was less than 50 nM.

Compound `CC(c1ccc2scnc2c1)N1CCc2ccc(O)cc2CC1` (racemic) [Example 33, 3-(1-(benzo[d]thiazol-5-yl)ethyl)-2,3,4,5-tetrahydro-1H-benzo[d]azepin-7-ol] yielded an IC50 of less than 50 nM.

In turn, `COc1ccc2c(c1)CCN([C@@H](C)c1ccc3scnc3c1)CC2` [Example 5, (S)-5-(1-(7-methoxy-1,2,4,5-tetrahydro-3H-benzo[d]azepin-3-yl)ethyl)benzo[d]thiazole] registered an IC50 of less than 50 nM.

In turn, `COc1ccc2c(c1)CCN(C(C)c1ccc3c(c1)OCC3)CC2` (single isomer, unassigned) [Example 9] returned an IC50 of 50 to 200 nM.

In turn, `CC(C)COc1ccc2c(c1)CCN(C(C)c1ccc3scnc3c1)CC2` (single isomer, unassigned) [Example 27, (R)-5-(1-(7-isobutoxy-1,2,4,5-tetrahydro-3H-benzo[d]azepin-3-yl)ethyl)benzo[d]thiazole or (S)-5-(1-(7-isobutoxy-1,2,4,5-tetrahydro-3H-benzo[d]azepin-3-yl)ethyl)benzo[d]thiazole] registered an IC50 of 200 to 1000 nM.

Take `CC(c1ccc2scnc2c1)N1CCc2ccc(Br)cc2CC1` (racemic) [Example 14, 5-(1-(7-bromo-1,2,4,5-tetrahydro-3H-benzo[d]azepin-3-yl)ethyl)benzo[d]thiazole]: the 50% inhibitory concentration (IC50) is less than 50 nM.

`CSc1ccc2c(c1)CCN(C(C)c1ccc3scnc3c1)CC2` (racemic) [Example 111]: the IC50 is less than 50 nM.

For the compound `CSc1ccc2c(c1)CCN(C(C)c1ccc3scnc3c1)CC2` (single isomer, unassigned) [Example 118], the IC50 is 1000 to 10000 nM.

In turn, `COc1ccc2c(c1)CCN(Cc1ccc3nsnc3c1)C(C)C2` (racemic) [Example 28, 5-((7-methoxy-2-methyl-1,2,4,5-tetrahydro-3H-benzo[d]azepin-3-yl)methyl)benzo[c][1,2,5]thiadiazole] yielded an IC50 of 1000 to 10000 nM.

In turn, `CC(c1ccc2scnc2c1)N1CCc2ccccc2CC1` (single isomer, unassigned) [Example 21] showed an IC50 of less than 50 nM.
